# Measurements from US4521538A (Medosan Industrie Biochimiche Riunite S.p.A., priority 1982, dated 1985).
# Read-outs that look alike come from different tables or passages of the source.
# Tests used:
# [1] = Antiinflammatory activity, carrageenin-induced oedema test; type: in vivo, rats
# Procedure: This effect was evaluated by means of an experimental model reproducing acute inflammation in rats: for this purpose the carrageenin-induced oedema test was employed following the method described by C. A. Winter (J. Pharmac. Exp. […] Wong, J. F. Gardocki and T. P. Pruss, J. Pharmac. Exp. Ther. 185 (1): 127, 1973). Table I lists the tested compounds, the concentration thereof, routes of administration and relative percentage oedema inhibitions; the data are commented upon at the end of the Tables.
# [2] = Analgesic activity, phenylquinone-induced writhing test; type: in vivo
# Procedure: The inhibiting effect on the abdominal contractions induced by phenyl-p-quinone was calculated by the following formula: [formula]
# Table II lists the doses, routes of administration and their efficacy expressed as percentage of protection.
# [3] = Antipyretic activity, yeast-induced hyperthermia; type: in vivo, albino male Wistar rats
# Excerpt: (§1) The composition that had been administered via the oral and/or parenteral route, was in suspension of 0.5% carboxymethylcellulose in neutral pH physiological saline solution.
# [4] = Mucolytic activity in vitro, consistency of human expectoration
# Procedure: The experiment was carried out "in vitro" according to the method of R. S. Hirsch (Bull. […] Table IV lists the percentage decrease of the expectoration consistency provoked by the compound of this invention in comparison with dithiothreitol and acetylcysteine which are known mucolytic agents.
# [5] = Antitussive activity (method of Y. Kase); type: in vivo, albino male Guinea-pigs
# Procedure: The antitussive effect on albino male Guinea-pigs weighing 300 g was evaluated using the method described by Y. Kase (Selected Pharmacological Testing Methods, p. 363, Marcel Dekker Inc., New York, 1968).
# [6] = type: in vivo, male Wistar rats; conditions: for % incidence / 10 / gastric damage index / mean No. of lesions / mean severity: four days; for mean severity: scale 0 (no lesion) to 5 (perforations)
# Procedure: Male Wistar rats weighing 180 g were randomized into groups of 10. Three doses of each compound were administered. One group received the vehicle alone (10 ml/kg b.w.). Each dose was given orally for four days consecutively and the rats were sacrificed on the fifth day for necropsy. The ulcerogenic effect was evaluated by the following scale:
# (1) each haemorrhagic point at least 1 mm in diameter was scored as 1 lesion,
# (2) haemorrhagic points less than 1 mm in diameter were scored in the following manner:
# (c) 20 to 29=three lesions
# (2) gastric mucosal irritation without haemorrhage: 1
# (3) haemorrhagic points less than 1 mm in diameter: 2
# (4) haemorrhagic points between 1 and 3 mm in diameter: 3
# (5) haemorrhagic points larger than 3 mm in diameter: 4
# By means of this scale it was possible to obtain the gastric damage index: [formula]
# [7] = in vivo; conditions: mouse
# [8] = in vivo; conditions: rat
# [9] = Solubility; type: physicochemical
# [10] = system: healthy animals; experiment: General observation of toxic effects in animals at the doses used
# Excerpt: as §1
compound,measurement,setting,value
COc1ccccc1OC(=O)Cc1ccc(C(=O)c2ccc(C)cc2)n1C [1-methyl-5-p-toluoylpyrrole-2-acetic acid guaiacyl ester],Oedema % inhibition,"[1]; 25 mg/kg i.p., 2 h",33.5%
same,Oedema % inhibition,"[1]; 25 mg/kg i.p., 4 h",30.0%
same,Oedema % inhibition,"[1]; 25 mg/kg i.p., 6 h",25.0%
same,Oedema % inhibition,"[1]; 25 mg/kg i.p., 24 h",7.0%
same,Oedema % inhibition,"[1]; 25 mg/kg per os, 2 h",27.0%
same,Oedema % inhibition,"[1]; 25 mg/kg per os, 4 h",29.0%
same,Oedema % inhibition,"[1]; 25 mg/kg per os, 6 h",28.0%
same,Oedema % inhibition,"[1]; 25 mg/kg per os, 24 h",3.2%
same,Oedema % inhibition,"[1]; 50 mg/kg i.p., 2 h",55.0%
same,Oedema % inhibition,"[1]; 50 mg/kg i.p., 4 h",51.6%
same,Oedema % inhibition,"[1]; 50 mg/kg i.p., 6 h",49.0%
same,Oedema % inhibition,"[1]; 50 mg/kg i.p., 24 h",9.2%
same,Oedema % inhibition,"[1]; 50 mg/kg per os, 2 h",49.0%
same,Oedema % inhibition,"[1]; 50 mg/kg per os, 4 h",53.0%
same,Oedema % inhibition,"[1]; 50 mg/kg per os, 6 h",51.0%
same,Oedema % inhibition,"[1]; 50 mg/kg per os, 24 h",5.3%
same,Oedema % inhibition,"[1]; 100 mg/kg i.p., 2 h",80.0%
same,Oedema % inhibition,"[1]; 100 mg/kg i.p., 4 h",78.0%
same,Oedema % inhibition,"[1]; 100 mg/kg i.p., 6 h",70.0%
same,Oedema % inhibition,"[1]; 100 mg/kg i.p., 24 h",9.5%
same,Oedema % inhibition,"[1]; 100 mg/kg per os, 2 h",71.6%
same,Oedema % inhibition,"[1]; 100 mg/kg per os, 4 h",77.8%
same,Oedema % inhibition,"[1]; 100 mg/kg per os, 6 h",77.0%
same,Oedema % inhibition,"[1]; 100 mg/kg per os, 24 h",7.2%
same,action against acute inflammation in words,[1]; oral and/or parenteral,inhibiting action against acute inflammation
same,% protection,[2]; 5 mg/kg i.p.,30.0%
same,% protection,[2]; 5 mg/kg per os,30.0%
same,% protection,[2]; 10 mg/kg i.p.,62.5%
same,% protection,[2]; 10 mg/kg per os,58.6%
same,% protection,[2]; 20 mg/kg i.p.,78.0%
same,% protection,[2]; 20 mg/kg per os,79.4%
same,analgesic action in words,[2]; oral and/or parenteral,marked analgesic action
same,% temperature decrease,"[3]; 50 mg/kg i.p., 1 h",18.0%
same,% temperature decrease,"[3]; 50 mg/kg i.p., 2 h",26.0%
same,% temperature decrease,"[3]; 50 mg/kg i.p., 3 h",39.0%
same,% temperature decrease,"[3]; 50 mg/kg per os, 1 h",16.0%
same,% temperature decrease,"[3]; 50 mg/kg per os, 2 h",20.0%
same,% temperature decrease,"[3]; 50 mg/kg per os, 3 h",33.0%
same,% temperature decrease,"[3]; 75 mg/kg i.p., 1 h",30.0%
same,% temperature decrease,"[3]; 75 mg/kg i.p., 2 h",35.0%
same,% temperature decrease,"[3]; 75 mg/kg i.p., 3 h",56.0%
same,% temperature decrease,"[3]; 75 mg/kg per os, 1 h",18.0%
same,% temperature decrease,"[3]; 75 mg/kg per os, 2 h",27.0%
same,% temperature decrease,"[3]; 75 mg/kg per os, 3 h",49.0%
same,% temperature decrease,"[3]; 100 mg/kg i.p., 1 h",42.0%
same,% temperature decrease,"[3]; 100 mg/kg i.p., 2 h",49.0%
same,% temperature decrease,"[3]; 100 mg/kg i.p., 3 h",58.0%
same,% temperature decrease,"[3]; 100 mg/kg per os, 1 h",29.0%
same,% temperature decrease,"[3]; 100 mg/kg per os, 2 h",35.0%
same,% temperature decrease,"[3]; 100 mg/kg per os, 3 h",50.0%
same,antithermic activity in words,[3]; oral and/or parenteral,considerable antithermic activity
same,% decrease of expectoration consistency,"[4]; 1.0 M (9%), 12 experiments",52%
same,mucolytic activity in words,[4]; described as in vivo tests,good mucolytic and antitussive activity
same,"% inhibition, amplitude of coughs",[5]; 50 mg/kg i.p.,18%
same,"% inhibition, frequency of coughs",[5]; 50 mg/kg i.p.,26%
same,"% inhibition, amplitude of coughs",[5]; 50 mg/kg per os,16%
same,"% inhibition, frequency of coughs",[5]; 50 mg/kg per os,22%
same,"% inhibition, amplitude of coughs",[5]; 75 mg/kg i.p.,25%
same,"% inhibition, frequency of coughs",[5]; 75 mg/kg i.p.,50%
same,"% inhibition, amplitude of coughs",[5]; 75 mg/kg per os,19%
same,"% inhibition, frequency of coughs",[5]; 75 mg/kg per os,45%
same,"% inhibition, amplitude of coughs",[5]; 100 mg/kg i.p.,40%
same,"% inhibition, frequency of coughs",[5]; 100 mg/kg i.p.,55%
same,"% inhibition, amplitude of coughs",[5]; 100 mg/kg per os,38%
same,"% inhibition, frequency of coughs",[5]; 100 mg/kg per os,56%
same,antitussive activity in words,[5]; in vivo tests,good mucolytic and antitussive activity
same,% incidence / 10,[6]; 50 mg/kg orally,7
same,gastric damage index,[6]; 50 mg/kg orally,9
same,mean No. of lesions,[6]; 50 mg/kg orally,1
same,mean severity,[6]; 50 mg/kg orally,1
same,% incidence / 10,[6]; 100 mg/kg orally,8
same,gastric damage index,[6]; 100 mg/kg orally,11
same,mean No. of lesions,[6]; 100 mg/kg orally,1
same,mean severity,[6]; 100 mg/kg orally,2
same,% incidence / 10,[6]; 200 mg/kg orally,8
same,gastric damage index,[6]; 200 mg/kg orally,12
same,mean No. of lesions,[6]; 200 mg/kg orally,2
same,mean severity,[6]; 200 mg/kg orally,2
same,ulcerogenic effect in words,[6]; number of gastric lesions and their severity (Table VI),moderate
same,gastrointestinal tolerability,"[6]; rat, in vivo",perfectly tolerated by the gastrointestinal tract
same,LD50,[7]; ip,1200 mg/kg
same,LD50,[7]; po,> 1500 mg/kg
same,LD50,[8]; ip,1180 mg/kg
same,LD50,[8]; po,> 1500 mg/kg
same,Solubility,[9],soluble in the usual organic solvents
same,death,"[10]; healthy animals, doses and routes used in the experiments, long- or short-term treatments",did not provoke death
same,apparent signs of toxic effects,[10]; in vivo,nor apparent signs of toxic effects
same,significant toxic effects,[10]; in vivo,did not provoke significant toxic effects
same,therapeutical index,[10]; in vivo,high therapeutical index
